Assay results published in publication PMC8317927 (Journal of Enzyme Inhibition and Medicinal Chemistry, 2021).
Values after ≈ are worked out from the molar mass of the structure shown. Values joined by “and” are separate entries in the source; they are usually repeats but may differ in a detail not shown here. Equal values may be shown once. Read-outs that look alike come from different tables or passages of the source.

Tests used:
[1] = biological target: T1, bovine testicular HAase (Bos taurus, UniProt Q2YDK3); experiment: Hyaluronidase inhibition assay; format: biochemical; details: for IC50 on HAase enzyme activity: nonlinear regression of inhibition rates at five concentrations (1-40 µg/mL); for inhibition at 40 µg/mL: read-out: Inhibition (%) of HAase enzyme activity
T1 sequence (Q2YDK3 36-553): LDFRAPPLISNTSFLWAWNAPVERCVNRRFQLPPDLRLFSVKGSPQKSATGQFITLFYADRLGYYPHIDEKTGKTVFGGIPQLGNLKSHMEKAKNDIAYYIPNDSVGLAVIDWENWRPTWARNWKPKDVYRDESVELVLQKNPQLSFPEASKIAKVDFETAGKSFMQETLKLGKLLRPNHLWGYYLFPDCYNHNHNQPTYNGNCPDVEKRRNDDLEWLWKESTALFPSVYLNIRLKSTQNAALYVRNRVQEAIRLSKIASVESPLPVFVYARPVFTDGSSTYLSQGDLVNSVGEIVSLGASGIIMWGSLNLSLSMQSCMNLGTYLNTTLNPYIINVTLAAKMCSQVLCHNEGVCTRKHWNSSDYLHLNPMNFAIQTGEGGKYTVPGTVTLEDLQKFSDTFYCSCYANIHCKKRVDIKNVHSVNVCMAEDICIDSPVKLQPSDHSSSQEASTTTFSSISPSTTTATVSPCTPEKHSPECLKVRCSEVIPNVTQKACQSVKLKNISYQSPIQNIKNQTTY
Experimental: Inhibitory effect on bovine testicular HAase activity was evaluated using a reported method with minor modifications. It is noted that long HA chains and HAase may form of non-active complexes at low ionic condition, which can impede the catalytic activity of HAase and disrupt the HAase inhibition assay. This interference can be avoided by adding a positively charged protein to balance the ionic strength of the reaction system and recover the activity of HAase[24]. […] […] Then hyaluronic acid (HA; 100 μL) was added to the pre-incubated mixture at 37 °C for 45 min. […] The absorbance was then measured at a wavelength of 600 nm using a microplate reader (SpectraMax M2, Molecular Devices Corp., operated by SoftmaxPro v.4.6 software, Sunnyvale, CA, USA). Each sample was tested at least in three replicates. […] The IC50 value of each sample was determined by analysing its inhibition rates at different concentrations with a nonlinear regression algorithm by GraphPad Prism.

[2] = test system: HaCaT cells; experiment: Cellular reactive oxygen species (ROS), H2O2-induced, DCFDA probe; format: cell-based, human; details: 10 µg/mL for 24 h, then H2O2 200 µM for 1 h
Experimental: HaCaT cells were seeded in 96-well plates at 6 × 10^3 cells per well and allowed to attach for 12 h. Then the cells were incubated with test samples (10 µg/mL) for 24 h. Next, the cell culture medium was removed and fresh phosphate buffer solution (PBS; 100 µL) containing a fluorescent probe 2′,7′-dichlorofluorescin diacetate (DCFDA; 20 µM) was added to the cells and incubated for 20 min. Then the cells were treated with H2O2 (100 µL; 200 µM) for 1 h followed by measuring the fluorescence intensity of each well with excitation and emission wavelengths of 485 and 525 nm, respectively, using a SpectraMax M2 plate reader.

[3] = test system: HAase; experiment: Lineweaver-Burk plot, enzyme kinetics of HAase inhibition; format: biochemical, bovine; details: four concentrations (5–40 µg/mL); HA 0.125–2.0 µM (6c), 0.2–1.0 µM (6g)
Experimental: The inhibition type of test compounds was determined by the Lineweaver-Burk plots.

[4] = Cell viability, XTT assay; format: cell-based; details: human, HaCaT keratinocyte cells
Experimental: Human keratinocytes (HaCaT) cells were purchased from Sigma Aldrich Co. (St. Louis, MO, USA) and cultured in Dulbecco’s modified Eagle’s medium (DMEM; Life Technologies; Gaithersburg, MD, USA) with 10% fetal bovine serum (Gibico; Grand Island, NY, USA) at 37 °C in the presence of 5% CO2. The cell viability of HaCaT treated with or without OA and its derivatives was measured by the XTT assay according to manufacturer’s instructions (XTT Cell proliferation Kit II; Roche, USA). Briefly, HaCaT cells were seeded in 96-well plates at 5 × 10^3 cells per well and allowed to attach for 12 h. Then OA and its derivatives (100 µL; 10 µg/mL) were incubated with cells for 24 h, followed by adding the XTT reagent (50 µL; 0.3 mg/mL) in each well and incubated for 4 h. The absorbance of each well was measured at wavelengths of 450 nm using a SpectraMax M2 plate reader (Molecular Devices; Sunnyvale, CA, USA).

| SMILES | Inhibition (%) of HAase enzyme activity ([1]; at 40 μg/mL) | IC50 on HAase enzyme activity [1] [µg/mL] | also measured |
| --- | --- | --- | --- |
| CC1(C)CCC2(C(=O)O)CCC3(C)C(=CCC4C5(C)Cc6c([nH]c7c([N+](=O)[O-])cccc67)C(C)(C)C5CCC43C)C2C1 (stereo not shown) [Compound 6a] | 100.9 ± 4.3% | 16.23 (≈ 28.3 µM) |  |
| CC1(C)CCC2(C(=O)O)CCC3(C)C(=CCC4C5(C)Cc6c([nH]c7c(F)cc(F)cc67)C(C)(C)C5CCC43C)C2C1 (stereo not shown) [Compound 6c] | 86.3 ± 3.3% | 9.97 (≈ 17.7 µM) | decrease of ROS level vs H2O2-exposed cells [2]: 23.6%; Inhibition type (Lineweaver-Burk plot) [3]: mixed type of competitive and non-competitive inhibitions |
| CC1(C)CCC23CC[C@]4(C)C(OC2=O)(C(F)CC2[C@@]5(C)CCC(=O)C(C)(C)C5CC[C@]24C)C3C1 (stereo partly shown) [Compound 4] |  |  | inhibition at 40 µg/mL ([1]; at 40 μg/mL): 37.3 ± 1.4% |
| CC1(C)CCC2(C(=O)O)CCC3(C)C(=CCC4C5(C)Cc6c([nH]c7c(Br)cccc67)C(C)(C)C5CCC43C)C2C1 (stereo not shown) [Compound 6f] | 100.6 ± 3.6% | 10.14 (≈ 16.7 µM) |  |
| Cc1cc(C)c2[nH]c3c(c2c1)CC1(C)C(CCC2(C)C1CC=C1C4CC(C)(C)CCC4(C(=O)O)CCC12C)C3(C)C (stereo not shown) [Compound 6d] | 93.5 ± 3.9% | 11.62 (≈ 20.9 µM) |  |
| CC1(C)CCC2(C(=O)O)CCC3(C)C(=CCC4C5(C)Cc6c([nH]c7ccc(Br)cc67)C(C)(C)C5CCC43C)C2C1 (stereo not shown) [Compound 6e] | 83.7 ± 3.3% | 11.60 (≈ 19.1 µM) |  |
| CC1(C)CCC2(C(=O)O)CCC3(C)C(=CCC4C5(C)Cc6c([nH]c7c(F)cccc67)C(C)(C)C5CCC43C)C2C1 (stereo not shown) [Compound 6b] | 100.2% and 100.4 ± 2.4% | 12.58 (≈ 23 µM) |  |
| CC1(C)CCC23CC[C@]4(C)C(OC2=O)(C(F)CC2[C@@]5(C)CC[C@H](O)C(C)(C)C5CC[C@]24C)C3C1 (stereo partly shown) [Compound 3] |  |  | inhibition at 40 µg/mL ([1]; at 40 μg/mL): 12.7 ± 3.9% |
| CC1(C)CC[C@]2(C(=O)O)CC[C@]3(C)C(=CCC4[C@@]5(C)CCC(=O)C(C)(C)C5CC[C@]43C)C2C1 (stereo partly shown) [Compound 2] |  |  | inhibition at 40 µg/mL [1]: 15.9 ± 4.3% |
| CC1(C)CC[C@]2(C(=O)O)CC[C@]3(C)C(=CC[C@@H]4[C@@]5(C)CC[C@H](O)C(C)(C)[C@@H]5CC[C@]43C)[C@@H]2C1 [Compound 1, Oleanolic acid, reference compound] |  |  | inhibition at 40 µg/mL [1]: 59.3 ± 2.4%; viability at 24 h, 10 µg/mL [4]: 96.7% |
| CC1(C)CCC2(C(=O)O)CCC3(C)C(=CCC4C5(C)Cc6c([nH]c7c(Cl)cccc67)C(C)(C)C5CCC43C)C2C1 (stereo not shown) [Compound 6g] | 98.1 ± 0.4% | 9.57 (≈ 17 µM) | Inhibition type (Lineweaver-Burk plot) [3]: mixed type of competitive and non-competitive inhibitions |
